US5994387A, “Pyrrolidinyl methyl indole salt” (Pfizer Inc., priority 1995, dated 1999)
Read-outs that look alike come from different tables or passages of the source.

Experiments:
Type in all cases: physicochemical
[1] = Solid-state (bulk) stability after 9 weeks storage, HPLC; parameters: key to % Degradation (% peak area @ 50° C.-% peak area @ 4° C.): --: No peaks present at this relative retention time; conditions: for Solid state stability in words: qualitative statement, fumarate; for degraded at 1512 h: solid state, read-out: % Degradation (% peak area @ 50° C.-% peak area @ 4° C.)
Description: Approximately 1 mg of each of the free base, hydrochloride, hydrobromide and fumarate salts of Compound (I) were accurately weighed into small glass vials. These were stored for 9 weeks at each of 4° C./ambient humidity, 40° C./ambient humidity, 40° C./75% RH and 50° C./ambient humidity. The samples were then assayed using the following stability indicating HPLC method. A mobile phase consisting of 0.05 M potassium dihydrogen orthophosphate adjusted to pH2 with phosphoric acid (90%) and acetonitrile (far UV) (10%), was pumped through a "Zorbax SB-CN" 150×4.6 mm column (40° C.) at a flow rate of 1 ml/min with UV detection at 225 nm.
The samples with the exception of the free base were prepared by dissolving them in the mobile phase in a 25 ml volumetric flask. The free base was dissolved in a few drops of methanol before diluting with the mobile phase.
The stability of the samples was quantified by investigating the appearance of new peaks in the chromatograms of stored samples and the increase in peaks present compared to control samples stored at 4° C.

[2] = Hygroscopicity: moisture uptake in moisture microbalance; conditions: for Hygroscopicity at 30° C. and 90% RH: moisture uptake; for Hygroscopicity in words: qualitative statement, fumarate
Description: Approximately 10 mg of each of the free base and fumarate salts of Compound (I) were exposed to 8 different relative humidities (RHs) between 0 and 94% at 30° C. in the Surface Measurement Systems Ltd moisture microbalance. The samples were allowed to reach equilibrium at each of these RHs and the change in weight from the initial value when the sample was first placed in the balance was calculated. The data was used to construct the moisture sorption isotherms for the materials. The hygroscopicity of the materials was compared by calculating the moisture uptake at 90%RH, which was as follows: […]

[3] = Saturated solubility of free base and fumarate salt in water (HPLC); conditions: for solubility at 16 h: saturated solubility in water (MilliQ), 16 hours at room temperature; for Solubility in words: water, qualitative statement, fumarate
Description: For both the free base and fumarate salt, approximately 50 mg of solid bulk material was accurately weighed into a 1.5 mL plastic "Eppendorf" tube (Sigma). 0.3 mL of water (MilliQ) was then added to the tubes. The tubes were then vortex mixed at 1,300 rpm ("LKB") for 16 hours at room temperature. The supematant was separated from undissolved material by centrifugation at 13,000 rpm for 20 minutes ("Heraeus Biofuge 13"), then diluted and assayed for Compound (I) by HPLC. This assay used a mobile phase of acetonitrile (20%), water (80%) and trifluoroacetic acid (0.1%) and a 150×4.2 mm "Zorbax SB CN" column at 40° C. with U.V. detection at 220 nm.

[4] = Oxidative stability in 90% PEG 400 with and without hydrogen peroxide; conditions: for Stability to oxidative degradation, in words: qualitative statement, fumarate
Excerpt: (§1) Soft gelatin capsule formulations are an attractive delivery system for Compound (I) as they improve in vivo dissolution and content uniformity on manufacture. The compound (I) can be formulated as a liquid fill soft gelatin capsule. However, oxidative degradation often limits the shelf life of such formulations. PEG 400 is representative of a typical liquid fill diluent used for such a purpose. The following study was designed to determine whether oxidative degradation occurs with Compound (I) in such a formulation, and whether the fumarate salt provides protection against oxidative degradation. 1 mg/mL solutions of Compound (I) as the free base, Compound (I) as the hydrochloride salt and Compound (I) as the fumarate salt were prepared in 90% PEG 400 (BDH) and 10% water (Milli-Q). 10% water was added to the formulations to mimic the ingress of water from the soft gelatin capsule shell. […] However, for ease of solution preparation, the hydrochloride salt was used instead.
Hydrogen peroxide (BDH) to a final concentration of 0.3% w/w was added to the formulations to provide an oxidative stress. A control formulation without hydrogen peroxide was also used in the study. 1 mL of each formulation was sealed into 2 mL HPLC vials ("Cromacol") and placed in a thermostated oven at 40° C. Samples were taken at 1.5 and 3 days and stored frozen (-20° C.) prior to assay. The samples were diluted and analysed using the stability indicating HPLC assay as described above. Degradation was expressed as % Compound (I) remaining.

[5] = Solubility in the 90% PEG 400 / 10% water formulation (observation); conditions: 1 mg/mL in 90% PEG 400 and 10% water
Excerpt: as §1

[6] = relative retention time 0.40, 9 weeks at 50° C.
[7] = relative retention time 0.60, 9 weeks at 50° C.
[8] = relative retention time 0.77, 9 weeks at 50° C.
[9] = relative retention time 0.85, 9 weeks at 50° C.
[10] = relative retention time 0.91, 9 weeks at 50° C.
[11] = relative retention time 1.66, 9 weeks at 50° C.
[12] = relative retention time 1.93, 9 weeks at 50° C.
[13] = relative retention time 0.59, 9 weeks at 50° C.

CNS(=O)(=O)Cc1ccc2[nH]cc(C[C@H]3CCCN3C)c2c1.O=C(O)/C=C/C(=O)O [Fumarate salt, (R)-5-(methylaminosulphonylmethyl)-3-(N-methylpyrrolidin-2-ylmethyl)-1H-indole fumarate]
Solid-state degradation in words ([1]; 9 weeks at 50° C.): had not degraded at all after 9 weeks 50 °C | Solid state stability in words [1]: most stable in the solid state | Solid state stability in words ([1]; listed as fumarate salt of (I)): excellent solubility and solid state stability | % Degradation (% peak area @ 50° C.-% peak area @ 4° C.) [1, 6]: -- | % Degradation (% peak area @ 50° C.-% peak area @ 4° C.) [1, 7]: -- | % Degradation (% peak area @ 50° C.-% peak area @ 4° C.) [1, 8]: -- | % Degradation (% peak area @ 50° C.-% peak area @ 4° C.) [1, 9]: -- | % Degradation (% peak area @ 50° C.-% peak area @ 4° C.) [1, 10]: -- | % Degradation (% peak area @ 50° C.-% peak area @ 4° C.) [1, 11]: -- | % Degradation (% peak area @ 50° C.-% peak area @ 4° C.) [1, 12]: -- | degraded at 1512 h [1, 13]: 0% | Hygroscopicity at 30° C. and 90% RH [2]: 0.2 % w/w | Hygroscopicity in words [2]: not accompanied by increased hygroscopicity | Hygroscopicity in words ([2]; listed as fumarate salt of (I)): non-hygroscopic | solubility at 16 h [3]: 67.5 mg/mL | Solubility in words [3]: Increased solubility | Solubility in words ([3]; listed as fumarate salt of (I)): excellent solubility | Degradation rate compared with the hydrochloride ([4]; 90% PEG 400, 40° C., both time points (1.5 and 3 days)): significantly lower (analysis of variance p<0.001) than the hydrochloride at both time points | Stability to oxidative degradation, in words [4]: significant protection against degradation in the formulation | Stability to oxidative degradation, in words ([4]; listed as fumarate salt of (I)): unexpectedly improved stability to oxidative degradation

CNS(=O)(=O)Cc1ccc2[nH]cc(C[C@H]3CCCN3C)c2c1 [Free base, (R)-5-(methylaminosulphonylmethyl)-3-(N-methylpyrrolidin-2-ylmethyl)-1H-indole]
New drug related peaks ([1]; 9 weeks at 50° C.): 4 new drug related peaks | Solid-state degradation in words ([1]; 9 weeks at 50° C.): measurable degradation | total increase in % peak area ([1]; all peaks, 9 weeks at 50° C. vs 4° C., 90720 min): 0.32% | % Degradation (% peak area @ 50° C.-% peak area @ 4° C.) [1, 13]: -- | % Degradation (% peak area @ 50° C.-% peak area @ 4° C.) [1, 8]: -- | % Degradation (% peak area @ 50° C.-% peak area @ 4° C.) [1, 9]: -- | degraded at 1512 h [1, 6]: 0.05% | degraded at 1512 h [1, 7]: 0.01% | degraded at 1512 h [1, 10]: 0.02% | degraded at 1512 h [1, 11]: 0.17% | degraded at 1512 h [1, 12]: 0.03% | Hygroscopicity at 30° C. and 90% RH [2]: 0.2 % w/w | solubility at 16 h [3]: 0.12 mg/mL | Solubility in the PEG 400 formulation [5]: not very soluble
